This note sets out measurements from patent US12109176B1, “Effect of glycerol on biofilm forming bacteria and fungi that changes the microbes sensitivity to pro and anti-biofilm non-toxic, non-bonded plasma amino acids and amino acid derivatives” (priority 2023, dated 2024).

Molecules are shown by their SMILES.

The test system of test [1] is bacterial (S. aureus) biofilm and fungal biofilm (C. albicans). Put plainly: Biofilm inhibition assay, bacterial and fungal taken together. Format: cell-based. The settings on record: symbol marks the assay. As for the experimental part:
(§1) Two types of biofilm assays were performed: an inhibition assay and a disruption assay. The inhibition assay assesses the compound's ability to prevent biofilm development, while the disruption assay assesses the compound's ability to break up an existing mature biofilm.
(§2) All bacterial biofilm solutions were prepared in Tryptic Soy Broth (TSB), supplemented with 1% glucose (henceforth referred to as TSB-G). All subsequent procedures were performed in a manner that maintained sterility. A solution of each amino acid or an amino acid derivative to be tested was prepared in weight to volume concentrations ranging from 0.1-5.0%. Amino acids and amino acid derivatives were also tested in combinations. Compound solutions were homogenized with gentle agitation in the dark (4° C., 24 hours) before use.
(§3) 32 Amino acids and 2 amino acid derivatives of the amino acid serine that occur freely in human blood were tested. […] 31 of the 32 amino acids that were tested were the L-Isomers. Glycine has no stereoisomers. The 2 amino acid derivatives, ethanolamine and phosphoethanolamine were also tested. All biofilm assays were performed using 384-well non-tissue culture-treated polystyrene plates. The fungal species tested are as follows: Candida albicans, Candida guilliermondii, Candida parapsilosis, Candida glabrata, Candida tropicalis and Candida dubliniensis. The bacterial species tested are as follows: Staphylococci (standard wild type and methicillin-resistant strain USA300), Escherichia coli, Pseudomonas aeruginosa and Staphylococcus epidermidis.
Fungal strains were streaked on Yeast Peptone Dextrose (YPD) agar plates and incubated at 30° C. for 48 hours. A single colony from each strain to be tested was inoculated into YPD broth and grown for 12 hours at 30° C., shaking at 225 rpm. […] The cells were allowed to adhere to the plate for 90 minutes at 37° C. with shaking (350 rpm). […] The plate was further incubated for 24 hours at 37° C. with shaking (350 rpm). Media was carefully aspirated and the biofilm was measured by optical density at 600 nm. […] The cells were allowed to adhere to the plate for 90 minutes at 37° C. with shaking (350 rpm). […] The plate was further incubated for 24 hours at 37° C. with shaking (350 rpm). […] The plate was further incubated for 24 hours at 37° C. with shaking (350 rpm). Media was carefully aspirated, and the biofilm was measured by optical density at 600 nm.
Bacterial strains were streaked on Blood Agar plates (5% sheep blood in Tryptic Soy Broth) and incubated at 37° C. for 24 hours. A single colony from each strain to be tested was inoculated in a TSB broth and grown for 12 hours, at 37° C. with shaking (225 rpm). For the bacterial biofilm inhibition assays, 1 μL of saturated overnight cell culture was added to either 80 μL of TSB-G, or TSB-G supplemented with the amino acid compound solution to be tested, in a 384-well plate. The cells were allowed to adhere to the plate for 60 minutes at 37° C. without shaking. The media was carefully aspirated and 80 μL of TSB-G, or TSB-G supplemented with the amino acid compound solution was added to the plate. The plate was further incubated for 24 hours at 37° C. without shaking. Media was carefully aspirated and the biofilm was measured by optical density at 600 nm. Eight or twelve replicates were performed for each tested condition and the reported values are normalized to the control (TSB-G media only). For the bacterial biofilm disruption assays, 80 µL of TSB-G was added to the plate, along with 1 μL of overnight cell culture. The cells were allowed to adhere to the plate for 60 minutes at 37° C. with no shaking. The media was carefully aspirated and 80 μL of TSB-G was added to the plate. The plate was further incubated for 24 hours at 37° C. with no shaking. Media was carefully aspirated from the mature biofilm and 80 μL of TSB-G, or TSB-G supplemented with the amino acid to be tested, was gently added to the plate.

Test [2] deals with bacterial (S. aureus) biofilm. The test is described as follows: Bacterial biofilm inhibition assay. The test is classed as cell-based, Staphylococcus aureus. As for the experimental part:
as §1, §2, §3
(§4) Bacterial strains were streaked on Blood Agar plates (5% sheep blood in Tryptic Soy Broth) and incubated at 37° C. for 24 hours. A single colony from each strain to be tested was inoculated in a TSB broth and grown for 12 hours, at 37° C. with shaking (225 rpm). For the bacterial biofilm inhibition assays, 1 μL of saturated overnight cell culture was added to either 80 μL of TSB-G, or TSB-G supplemented with the amino acid compound solution to be tested, in a 384-well plate. The cells were allowed to adhere to the plate for 60 minutes at 37° C. without shaking. The media was carefully aspirated and 80 μL of TSB-G, or TSB-G supplemented with the amino acid compound solution was added to the plate. The plate was further incubated for 24 hours at 37° C. without shaking. Media was carefully aspirated and the biofilm was measured by optical density at 600 nm. Eight or twelve replicates were performed for each tested condition and the reported values are normalized to the control (TSB-G media only). For the bacterial biofilm disruption assays, 80 µL of TSB-G was added to the plate, along with 1 μL of overnight cell culture. The cells were allowed to adhere to the plate for 60 minutes at 37° C. with no shaking. The media was carefully aspirated and 80 μL of TSB-G was added to the plate. The plate was further incubated for 24 hours at 37° C. with no shaking. Media was carefully aspirated from the mature biofilm and 80 μL of TSB-G, or TSB-G supplemented with the amino acid to be tested, was gently added to the plate. The plate was further incubated for 24 hours at 37° C. without shaking. Media was aspirated and the biofilm was measured by optical density at 600 nm. Twelve replicates were performed for each tested condition and the reported values are normalized to the control (TSB-G media only).

In a further test the test system is bacterial biofilm. Put plainly: In vitro testing on bacterial biofilm (inhibition and/or disruption). Format: cell-based. As to conditions: in vitro testing. As for the experimental part:
as §1, §2, §3, §4

Setting [3] is: Table D, Neutral = no effect on the biofilm.
[4] abbreviates: Table E, in the absence of an infusion of glycerol.
[5] abbreviates: Table F, in the presence of a sufficient concentration of glycerol.

Turning to `Cn1cnc(C[C@H](N)C(=O)O)c1` [1-Methylhistidine, 1-methyl-L-histidine], the “Neutral (square: Inhibition Biofilm Assay)” value in test [1] (setting [3]), in test [1] (setting [4]) and in test [1] (setting [5]) was “▪ (Single square [ie. ▪] signifies little effect on the Inhibition Biofilm Assay (from about 10 to less than 30%))” each time.
In the case of `CCC(N)C(=O)O` (stereo not shown) [2 Aminobutyric Acid, 2-aminobutyric acid], the “Neutral (square: Inhibition Biofilm Assay)” value in test [1] (setting [3]), in test [1] (setting [4]) and in test [1] (setting [5]) was “▪ (Single square [ie. ▪] signifies little effect on the Inhibition Biofilm Assay (from about 10 to less than 30%))” each time.
As for `N=C(N)NCCC[C@H](N)C(=O)O` [Arginine, L-arginine], the “Promote B Biofilm (squares: Inhibition Biofilm Assay)” value in test [2] (Table D, 0.1 to 5.0%) is “▪ (Single square [ie. ▪] signifies little effect on the Inhibition Biofilm Assay (from about 10 to less than 30%))”; in test [2] (setting [4]) it was “▪ (Single square [ie. ▪] signifies little effect on the Inhibition Biofilm Assay (from about 10 to less than 30%))”. The “effect on bacterial biofilm (in words)” value in the test on bacterial biofilm is reported as “promoted bacterial biofilm formation”.
For the compound `NC(=O)C[C@H](N)C(=O)O` [Asparagine, L-asparagine], the “Promote B Biofilm (squares: Inhibition Biofilm Assay)” value was “▪ (Single square [ie. ▪] signifies little effect on the Inhibition Biofilm Assay (from about 10 to less than 30%))” in test [2] (Table D, 0.1 to 5.0%) and “▪ (Single square [ie. ▪] signifies little effect on the Inhibition Biofilm Assay (from about 10 to less than 30%))” in test [2] (setting [4]). Moreover, in the test with bacterial biofilm, the “effect on bacterial biofilm (in words)” value was “promoted bacterial biofilm formation”.
`NCCC(=O)O` [Beta-Alanine, Beta-alanine]: the “Reduce or Inhibit B Biofilm (squares: Inhibition Biofilm Assay)” value in test [2] (Table D, 0.1 to 5.0%) is “▪ (Single square [ie. ▪] signifies little effect on the Inhibition Biofilm Assay (from about 10 to less than 30%))”; in test [2] (setting [5]) it was “▪ (Single square [ie. ▪] signifies little effect on the Inhibition Biofilm Assay (from about 10 to less than 30%))”. Besides, the “effect on bacterial biofilm (in words)” value in the test on bacterial biofilm is on record as “antibacterial biofilm effect”.
For `NC(=O)NCCC[C@H](N)C(=O)O` [Citrulline, L-citrulline], the “Promote B Biofilm (squares: Inhibition Biofilm Assay)” value in test [2] (Table D, 0.1 to 5.0%) is “▪ (Single square [ie. ▪] signifies little effect on the Inhibition Biofilm Assay (from about 10 to less than 30%))”; in test [2] (setting [4]) it was “▪ (Single square [ie. ▪] signifies little effect on the Inhibition Biofilm Assay (from about 10 to less than 30%))”. Moreover, the “effect on bacterial biofilm (in words)” value in the test with bacterial biofilm is reported as “promoted bacterial biofilm formation”.
Consider `NCC(=O)O` [Glycine, L-glycine], for which the “Promote B Biofilm (squares: Inhibition Biofilm Assay)” value in test [2] (Table D, 0.1 to 5.0%) is “▪ (Single square [ie. ▪] signifies little effect on the Inhibition Biofilm Assay (from about 10 to less than 30%))”; in test [2] (setting [4]), “▪ (Single square [ie. ▪] signifies little effect on the Inhibition Biofilm Assay (from about 10 to less than 30%))”. In the test on bacterial biofilm, the “effect on bacterial biofilm (in words)” value is listed as “promoted bacterial biofilm formation”.
As to `CC[C@H](C)[C@H](N)C(=O)O` [Isoleucine, L-isoleucine], the “Promote B Biofilm (squares: Inhibition Biofilm Assay)” value was “▪ (Single square [ie. ▪] signifies little effect on the Inhibition Biofilm Assay (from about 10 to less than 30%))” in test [2] (Table D, 0.1 to 5.0%) and “▪ (Single square [ie. ▪] signifies little effect on the Inhibition Biofilm Assay (from about 10 to less than 30%))” in test [2] (setting [4]). In addition, in the test on bacterial biofilm, the “effect on bacterial biofilm (in words)” value is given as “promoted bacterial biofilm formation”.
As for `CC(C)C[C@H](N)C(=O)O` [Leucine, L-leucine], the “Promote B Biofilm (squares: Inhibition Biofilm Assay)” value in test [2] (Table D, 0.1 to 5.0%) is “▪ (Single square [ie. ▪] signifies little effect on the Inhibition Biofilm Assay (from about 10 to less than 30%))”; in test [2] (setting [4]), “▪ (Single square [ie. ▪] signifies little effect on the Inhibition Biofilm Assay (from about 10 to less than 30%))”. For the same compound, in the test with bacterial biofilm, the “effect on bacterial biofilm (in words)” value was “promoted bacterial biofilm formation”.
Take `NCCCC[C@H](N)C(=O)O` [Lysine, L-lysine]: the “Promote B Biofilm (squares: Inhibition Biofilm Assay)” value in test [2] (Table D, 0.1 to 5.0%) was “▪ (Single square [ie. ▪] signifies little effect on the Inhibition Biofilm Assay (from about 10 to less than 30%))”; in test [2] (setting [4]), “▪ (Single square [ie. ▪] signifies little effect on the Inhibition Biofilm Assay (from about 10 to less than 30%))”. In addition, the “effect on bacterial biofilm (in words)” value with bacterial biofilm is “promoted bacterial biofilm formation”.
`NCCC[C@H](N)C(=O)O` [Ornithine, L-ornithine]: the “Neutral (square: Inhibition Biofilm Assay)” value in test [1] (setting [3]), in test [1] (setting [4]) and in test [1] (setting [5]) was “▪ (Single square [ie. ▪] signifies little effect on the Inhibition Biofilm Assay (from about 10 to less than 30%))” each time. In addition, the “effect on bacterial biofilm (in words)” value with bacterial biofilm is “promoted bacterial biofilm formation”.
As to `O=C(O)[C@@H]1CCCN1` [Proline, L-proline], the “Neutral (square: Inhibition Biofilm Assay)” value in test [1] (setting [3]), in test [1] (setting [4]) and in test [1] (setting [5]) was “▪ (Single square [ie. ▪] signifies little effect on the Inhibition Biofilm Assay (from about 10 to less than 30%))” in each case. Besides, the “effect on bacterial biofilm (in words)” value in the test with bacterial biofilm is “promoted bacterial biofilm formation”.
On to `NCCS(=O)(=O)O` [Taurine, L-taurine], for which the “effect on bacterial biofilm (in words)” value in the test with bacterial biofilm is “promoted bacterial biofilm formation”.
On the same count and under the same terms, the value for `C[C@@H](O)[C@H](N)C(=O)O` [Threnonine, L-threonine] was “promoted bacterial biofilm formation”.
